According to patent US20250368609A1, “TRIAZINANE COMPOUND AND COMPOSITION CONTAINING SAME” (SUMITOMO CHEMICAL COMPANY, LIMITED, priority 2022, published 2025):

Columns and labels:
velvetleaf = test: Test method 3: upland field, post-emergence foliar application test, herbicidal efficacy against velvetleaf; format: in vivo, Abutilon theophrasti; parameters: key: if there is no or almost no difference in the state of emergence or growth of test weeds at the time of investigation as compared with that of test weeds in an untreated control, the evaluation of the herbicidal efficacy is classified as “0”; if the test weeds are completely withered or emergence or growth of the test weeds is suppressed, the evaluation of the herbicidal efficacy is classified as “10”; conditions: scale 0 to 10
[1] = test system: waterhemp (Amaranthus tuberculatus=A. rudis); test: Test method 3: upland field, post-emergence foliar application test, herbicidal efficacy against waterhemp; format: in vivo; conditions: scale 0 to 10
[2] = test system: velvetleaf (Abutilon theophrasti); test: Test method 1: upland field, post-emergence foliar application test (velvetleaf); format: in vivo; parameters: key: if there is no or almost no difference in the state of emergence or growth of test weeds at the time of investigation as compared with that of test weeds in an untreated control, the evaluation of the herbicidal efficacy is classified as “0”; if the test weeds are completely withered or emergence or growth of the test weeds is suppressed, the evaluation of the herbicidal efficacy is classified as “10”; conditions: scale 0 to 10
Text: Next, the herbicidal efficacy of the compound of the present invention is shown by test examples. In the following test examples, the evaluation of the herbicidal efficacy is classified into 0 to 10, where if there is no or almost no difference in the state of emergence or growth of test weeds at the time of investigation as compared with that of test weeds in an untreated control, the evaluation of the herbicidal efficacy is classified as “0”, and if the test weeds are completely withered or emergence or growth of the test weeds is suppressed, the evaluation of the herbicidal efficacy is classified as “10”. A pot is filled with a commercially available culture soil, and seeds of velvetleaf (Abutilon theophrasti) are sown in the pot. Thereafter, the seeds are covered with approximately 0.5 cm of soil, and each of the seeds is cultivated in a greenhouse for 13 days. Next, a predetermined amount of the test compound is dissolved in 1 mL of a DMF solution containing 2% of an adjuvant, and 18 mL of water is added thereto, thereby preparing a diluent. The diluent is uniformly sprayed over plants so as to give the plants a predetermined treatment amount. Thereafter, the plants are cultivated in the greenhouse for 20 days, and herbicidal efficacy is evaluated.

corn (Zea mays) = conditions: in vivo, 7 days

SMILES | Herbicidal efficacy Velvetleaf 1 WAT (velvetleaf; dosage 16 gAI/ha) | Herbicidal efficacy Velvetleaf 1 WAT (velvetleaf; dosage 32 gAI/ha) | Herbicidal efficacy Waterhemp 1 WAT ([1]; dosage 16 gAI/ha) | Herbicidal efficacy Waterhemp 1 WAT ([1]; dosage 32 gAI/ha) | Herbicidal efficacy Velvetleaf 1 WAT (velvetleaf; dosage 8 gAI/ha) | Herbicidal efficacy Waterhemp 1 WAT ([1]; dosage 8 gAI/ha) | Herbicidal efficacy Velvetleaf 3 WAT ([2]; dosage 1 gAI/ha) | Herbicidal efficacy Velvetleaf 3 WAT ([2]; dosage 2 gAI/ha) | Phytotoxicity Corn 1 WAT (corn (Zea mays))
C=CCOC(=O)C1(Oc2cc(-n3c(=O)cc(C(F)(F)F)n(C)c3=O)c(F)cc2Cl)CC1 [Compound B-1] | 10 | 10 | 9 | 9 | – | – | – | – | –
CCOC(=O)COC(=O)C1(Oc2cc(-n3c(=O)cc(C(F)(F)F)n(C)c3=O)c(F)cc2Cl)CC1 [Compound B-2] | 10 | – | 9 | – | 10 | 9 | – | – | –
Cn1c(=S)n(C)c(=O)n(-c2cc(OC3CCCC3)c(Cl)cc2F)c1=O [Compound C-1] | – | – | – | – | – | – | 1 | 1 | –
C=CCOC(=O)C(C)Oc1cc(-n2c(=O)n(C)c(=S)n(C)c2=O)c(F)cc1Cl (stereo not shown) [Compound C-2] | – | – | – | – | – | – | 1 | 1 | –
CCOCCOC(=O)C(C)Oc1cc(-n2c(=O)n(C)c(=S)n(C)c2=O)c(F)cc1Cl (stereo not shown) [Compound C-3] | – | – | – | – | – | – | 1 | 1 | –
C=CCOC(=O)C1(Oc2cc(-n3c(=O)n(C)c(=S)n(C)c3=O)c(F)cc2Cl)CC1 [Compound I-5] | 10 | 10 | 9 | 9 | – | – | 10 | 10 | 1
CCOC(=O)COC(=O)C1(Oc2cc(-n3c(=O)n(C)c(=S)n(C)c3=O)c(F)cc2Cl)CC1 [Compound I-14] | 10 | – | 9 | – | 10 | 9 | 10 | 10 | 1
